# In patent US12384770B2, “Heterocyclic compound” (Takeda Pharmaceutical Company Limited, priority 2019, dated 2025):
# Target: T1, HDAC6 enzyme (Homo sapiens, UniProt Q9UBN7)
# T1 construct: HDAC6 enzyme prepared by transducing full length HDAC6 gene into Sf-9 insect cells; GST; purchased SignalChem; host or cells: Sf-9 insect cells
# T1 sequence (Q9UBN7 1-1215): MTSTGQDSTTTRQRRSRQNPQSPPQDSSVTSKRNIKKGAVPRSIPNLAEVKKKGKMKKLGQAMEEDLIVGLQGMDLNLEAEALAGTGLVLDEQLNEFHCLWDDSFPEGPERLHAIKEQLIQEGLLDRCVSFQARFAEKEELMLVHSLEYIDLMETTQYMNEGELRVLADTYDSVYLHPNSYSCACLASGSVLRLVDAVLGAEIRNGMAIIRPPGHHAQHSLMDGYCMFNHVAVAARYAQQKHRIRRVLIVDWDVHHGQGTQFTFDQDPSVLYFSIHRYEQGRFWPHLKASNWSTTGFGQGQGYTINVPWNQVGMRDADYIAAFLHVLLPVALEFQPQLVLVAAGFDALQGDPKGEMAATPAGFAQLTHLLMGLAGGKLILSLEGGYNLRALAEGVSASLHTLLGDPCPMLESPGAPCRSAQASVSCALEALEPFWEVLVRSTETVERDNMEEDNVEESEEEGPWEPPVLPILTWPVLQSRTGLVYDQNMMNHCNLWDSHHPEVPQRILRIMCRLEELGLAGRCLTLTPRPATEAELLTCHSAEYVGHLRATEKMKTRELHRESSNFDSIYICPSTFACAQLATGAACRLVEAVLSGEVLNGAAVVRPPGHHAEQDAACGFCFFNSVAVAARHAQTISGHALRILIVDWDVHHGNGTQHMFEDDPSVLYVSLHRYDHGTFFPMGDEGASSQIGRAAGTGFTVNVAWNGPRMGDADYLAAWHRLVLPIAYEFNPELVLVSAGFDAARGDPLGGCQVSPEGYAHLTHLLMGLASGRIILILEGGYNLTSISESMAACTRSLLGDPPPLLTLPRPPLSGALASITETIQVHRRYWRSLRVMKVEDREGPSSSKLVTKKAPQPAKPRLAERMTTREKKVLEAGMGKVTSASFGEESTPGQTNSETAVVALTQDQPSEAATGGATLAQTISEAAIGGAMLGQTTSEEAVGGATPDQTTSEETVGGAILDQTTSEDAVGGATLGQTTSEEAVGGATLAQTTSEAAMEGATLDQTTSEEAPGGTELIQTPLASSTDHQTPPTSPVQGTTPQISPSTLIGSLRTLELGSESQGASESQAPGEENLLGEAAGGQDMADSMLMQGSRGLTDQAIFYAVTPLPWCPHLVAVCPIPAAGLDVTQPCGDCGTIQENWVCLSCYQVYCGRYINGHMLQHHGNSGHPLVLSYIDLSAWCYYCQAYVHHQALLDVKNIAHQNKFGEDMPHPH
# Test: HDAC6 enzyme inhibitory assay (HDAC-Glo I/II Assay kit)
# Format: biochemical
# Conditions: wells without enzyme = 100% inhibition
# Procedure: Experimental Example 1 HDAC6 Enzyme Inhibitory Assay
# HDAC6 enzyme prepared by transducing full length HDAC6 gene into Sf-9 insect cells and purifying by GST affinity column were purchased from SignalChem. Using this enzyme, HDAC6 enzyme inhibitory activity of the compound of the present invention were evaluated. Enzymes were used after preserved at −70° C. HDAC6 enzyme inhibitory activity of the compound of the present invention was measured using HDAC-Glo™ I/II Assay kit (Promega) according to the following experimental method. The test compound diluted with assay buffer (24 mM Tris-HCl (pH 7.5), 1 mM MgCl2, 0.35 mM KCl, 135 mM NaCl, 0.6 mM Glutathione, 0.01% Tween-20) was added to a 384-well plate by each 2 μL. Then, HDAC6 enzyme solution diluted with assay buffer was added thereto by each 4 μL, and the plate was incubated at room temperature for 60 min. After incubated, HDAC substrate-Developer solution prepared according to Promega protocol attached to the assay kit was added to the 384-well plate by each 2 μL, and the enzyme reaction was started. After reacting at room temperature for 20 min, luminescence level was measured using plate reader Envision (PerkinElmer). The inhibitory activity of each compound of Example was calculated as a relative activity value when luminescence level in wells without enzyme is considered as 100% inhibition.
row,SMILES,HDAC6 inhibitory rate (%) (10 μM)
1,"O=C1c2cc(-c3nnc(C(F)F)o3)ccc2CN1[C@H](c1cnccn1)[C@@H](O)c1ccc(F)cc1 (single isomer, unassigned) [Example 99, 6-[5-(difluoromethyl)-1,3,4-oxadiazol-2-yl]-2-[(1R*,2S*)-2-(4-fluorophenyl)-2-hydroxy-1-(pyrazin-2-yl)ethyl]-2,3-dihydro-1H-isoindol-1-one]",100
2,"O=C1c2cc(-c3nnc(C(F)F)o3)ccc2CN1[C@H](c1ccccn1)[C@@H](O)c1cccc(C(F)(F)F)n1 (single isomer, unassigned) [Example 120, 6-[5-(difluoromethyl)-1,3,4-oxadiazol-2-yl]-2-{(1R*,2R*)-2-hydroxy-1-(pyridin-2-yl)-2-[6-(trifluoromethyl)pyridin-2-yl]ethyl}-2,3-dihydro-1H-isoindol-1-one]",101
3,"O=C1c2cc(-c3nnc(C(F)F)o3)ccc2CN1[C@H](c1ccc(F)c(F)c1)[C@@H](O)c1ccccn1 (single isomer, unassigned) [Example 51, 6-[5-(difluoromethyl)-1,3,4-oxadiazol-2-yl]-2-[(1R*,2R*)-1-(3,4-difluorophenyl)-2-hydroxy-2-(pyridin-2-yl)ethyl]-2,3-dihydro-1H-isoindol-1-one]",99
4,"O=C1c2cc(-c3nnc(C(F)F)o3)ccc2CN1[C@H](c1ccc(F)nc1)[C@@H](O)c1ccc(F)cc1 (single isomer, unassigned) [Example 35, 6-[5-(difluoromethyl)-1,3,4-oxadiazol-2-yl]-2-[(1R*,2S*)-2-(4-fluorophenyl)-1-(6-fluoropyridin-3-yl)-2-hydroxyethyl]-2,3-dihydro-1H-isoindol-1-one]",100

# Same assay, conditions: wells without enzyme = 100% inhibition, 10 µM
row,SMILES,HDAC6 inhibitory rate (%) (10 μM)
1,"O=C1c2cc(-c3nnc(C(F)F)o3)ccc2CN1[C@H](c1ccccn1)[C@@H](O)c1ccc(C(F)(F)F)cn1 (single isomer, unassigned) [Example 105, 6-[5-(difluoromethyl)-1,3,4-oxadiazol-2-yl]-2-{(1R*,2R*)-2-hydroxy-1-(pyridin-2-yl)-2-[5-(trifluoromethyl)pyridin-2-yl]ethyl}-2,3-dihydro-1H-isoindol-1-one]",99
2,"O=C1c2cc(-c3nnc(C(F)F)o3)ccc2CN1[C@H](c1ccccn1)[C@@H](O)c1cccc(Cl)n1 (single isomer, unassigned) [Example 115, 2-[(1R*,2R*)-2-(6-chloropyridin-2-yl)-2-hydroxy-1-(pyridin-2-yl)ethyl]-6-[5-(difluoromethyl)-1,3,4-oxadiazol-2-yl]-2,3-dihydro-1H-isoindol-1-one]",100

# Same assay, conditions: wells without enzyme = 100% inhibition, read-out: HDAC6 inhibitory rate (%) (10 μM)
row,SMILES,inhibition at 10 µM [%]
1,"O=C1c2cc(-c3nnc(C(F)F)o3)ccc2CN1[C@H](c1cnccn1)[C@@H](O)c1ccc(F)cc1 (single isomer, unassigned) [Example 98, 6-[5-(difluoromethyl)-1,3,4-oxadiazol-2-yl]-2-[(1R*,2S*)-2-(4-fluorophenyl)-2-hydroxy-1-(pyrazin-2-yl)ethyl]-2,3-dihydro-1H-isoindol-1-one]",100
2,"O=C1c2cc(-c3nnc(C(F)F)o3)ccc2CN1[C@H](c1cccc(F)c1)[C@@H](O)c1ccccc1 (racemic) [Example 20, 6-[5-(difluoromethyl)-1,3,4-oxadiazol-2-yl]-2-[(1RS,2SR)-1-(3-fluorophenyl)-2-hydroxy-2-phenylethyl]-2,3-dihydro-1H-isoindol-1-one]",100
3,"O=C1c2cc(-c3nnc(C(F)F)o3)ccc2CN1[C@H](C1CCOCC1)[C@@H](O)c1ccc(F)c(F)c1 (single isomer, unassigned) [Example 87, 6-[5-(difluoromethyl)-1,3,4-oxadiazol-2-yl]-2-[(1R*,2S*)-2-(3,4-difluorophenyl)-2-hydroxy-1-(oxan-4-yl)ethyl]-2,3-dihydro-1H-isoindol-1-one]",100
4,"O=C1c2cc(-c3nnc(C(F)F)o3)ccc2CN1[C@H](c1ccc(F)cc1)[C@H](O)C1CC1 (racemic) [Example 140, 2-[(1RS,2RS)-2-cyclopropyl-1-(4-fluorophenyl)-2-hydroxyethyl]-6-[5-(difluoromethyl)-1,3,4-oxadiazol-2-yl]-2,3-dihydro-1H-isoindol-1-one]",98
5,"O=C1c2cc(-c3nnc(C(F)F)o3)ccc2CN1[C@H](c1ccccc1)[C@@H](O)c1ccc(F)cc1 (racemic) [Example 22, 6-[5-(difluoromethyl)-1,3,4-oxadiazol-2-yl]-2-[(1RS,2SR)-2-(4-fluorophenyl)-2-hydroxy-1-phenylethyl]-2,3-dihydro-1H-isoindol-1-one]",99
6,"O=C1c2cc(-c3nnc(C(F)F)o3)ccc2CN1[C@H](C1CC1)[C@@H](O)c1ccc(F)nc1 [Example 63, 2-[(1R,2S)-1-cyclopropyl-2-(6-fluoropyridin-3-yl)-2-hydroxyethyl]-6-[5-(difluoromethyl)-1,3,4-oxadiazol-2-yl]-2,3-dihydro-1H-isoindol-1-one]",100
7,"O=C1c2cc(-c3nnc(C(F)F)o3)ccc2CN1[C@H](c1ccc(F)cn1)[C@@H](O)c1ccccn1 (single isomer, unassigned) [Example 59, 6-[5-(difluoromethyl)-1,3,4-oxadiazol-2-yl]-2-[(1R*,2R*)-1-(5-fluoropyridin-2-yl)-2-hydroxy-2-(pyridin-2-yl)ethyl]-2,3-dihydro-1H-isoindol-1-one]",100
8,"O=C1c2cc(-c3nnc(C(F)F)o3)ccc2CN1[C@@H](c1ccc(F)cc1)[C@@H](O)c1ccccc1 (racemic) [Example 138, 6-[5-(difluoromethyl)-1,3,4-oxadiazol-2-yl]-2-[(1SR,2SR)-1-(4-fluorophenyl)-2-hydroxy-2-phenylethyl]-2,3-dihydro-1H-isoindol-1-one]",99
9,"O=C1c2cc(-c3nnc(C(F)F)o3)ccc2CN1[C@H](c1cccc(F)n1)[C@@H](O)c1cccc(F)n1 (single isomer, unassigned) [Example 117, 2-[(1R*,2R*)-1,2-bis(6-fluoropyridin-2-yl)-2-hydroxyethyl]-6-[5-(difluoromethyl)-1,3,4-oxadiazol-2-yl]-2,3-dihydro-1H-isoindol-1-one]",101
10,"O=C1c2cc(-c3nnc(C(F)F)o3)ccc2CN1[C@H](c1ccc(C(F)(F)F)nc1)[C@@H](O)c1ccccc1 (racemic) [Example 17, 6-[5-(difluoromethyl)-1,3,4-oxadiazol-2-yl]-2-{(1RS,2SR)-2-hydroxy-2-phenyl-1-[6-(trifluoromethyl)pyridin-3-yl]ethyl}-2,3-dihydro-1H-isoindol-1-one]",100
11,"O=C1c2cc(-c3nnc(C(F)F)o3)ccc2CN1[C@H](c1ccccc1)[C@H](O)c1ccccc1 [Example 12, 6-[5-(difluoromethyl)-1,3,4-oxadiazol-2-yl]-2-[(1R,2R)-2-hydroxy-1,2-diphenylethyl]-2,3-dihydro-1H-isoindol-1-one]",100
12,"O=C1c2cc(-c3nnc(C(F)F)o3)ccc2CN1[C@H](c1ccc(C(F)(F)F)cc1)[C@@H](O)c1ccccn1 (racemic) [Example 26, 6-[5-(difluoromethyl)-1,3,4-oxadiazol-2-yl]-2-{(1RS,2RS)-2-hydroxy-2-(pyridin-2-yl)-1-[4-(trifluoromethyl)phenyl]ethyl}-2,3-dihydro-1H-isoindol-1-one]",99
